Experimental data: US9266857B2, “Bicyclic AZA compounds as muscarinic M1 receptor agonists” (Heptares Therapeutics Limited, priority 2012, dated 2016)
Where two headings read alike, the source gives them in different places.

Experiments:
Assay type in all cases: cell-based
[1] = target: T1, human muscarinic M3 receptor (Homo sapiens, UniProt P20309); assay: Alphascreen Surefire phospho-ERK1/2 functional assay, M3; details: for EC50: CHO cells stably expressing human M3, phospho-ERK1/2, read-out: pEC50 M3 (converted); for Emax: CHO, read-out: % Emax cf. ACh, M3
T1 construct: expressed in transfected cells
Protocol: (§1) ERK1/2 phosphorylation is a downstream consequence of both Gq/11 and Gi/o protein coupled receptor activation, making it highly suitable for the assessment of M1, M3 (Gq/11 coupled) and M2, M4 receptors (Gi/o coupled), rather than using different assay formats for different receptor subtypes. CHO cells stably expressing the human muscarinic M1, M2, M3 or M4 receptor were plated (25K/well) onto 96-well tissue culture plates in MEM-alpha+10% dialysed FBS. Once adhered, cells were serum-starved overnight. Agonist stimulation was performed by the addition of 5 μL agonist to the cells for 5 min (37° C.). Media was removed and 50 μL of lysis buffer added. After 15 min, a 4 μL sample was transferred to 384-well plate and 7 μL of detection mixture added. Plates were incubated for 2 h with gentle agitation in the dark and then read on a PHERAstar plate reader.
(§2) pEC50 and Emax figures were calculated from the resulting data for each receptor subtype.

[2] = target: T2, human muscarinic M1 receptor (Homo sapiens, UniProt P11229); assay: Alphascreen Surefire phospho-ERK1/2 functional assay, M1; details: for EC50: phospho-ERK1/2, read-out: pEC50 M1 (converted); for Emax: CHO
T2 construct: expressed in transfected cells
T2 sequence (P11229 1-460): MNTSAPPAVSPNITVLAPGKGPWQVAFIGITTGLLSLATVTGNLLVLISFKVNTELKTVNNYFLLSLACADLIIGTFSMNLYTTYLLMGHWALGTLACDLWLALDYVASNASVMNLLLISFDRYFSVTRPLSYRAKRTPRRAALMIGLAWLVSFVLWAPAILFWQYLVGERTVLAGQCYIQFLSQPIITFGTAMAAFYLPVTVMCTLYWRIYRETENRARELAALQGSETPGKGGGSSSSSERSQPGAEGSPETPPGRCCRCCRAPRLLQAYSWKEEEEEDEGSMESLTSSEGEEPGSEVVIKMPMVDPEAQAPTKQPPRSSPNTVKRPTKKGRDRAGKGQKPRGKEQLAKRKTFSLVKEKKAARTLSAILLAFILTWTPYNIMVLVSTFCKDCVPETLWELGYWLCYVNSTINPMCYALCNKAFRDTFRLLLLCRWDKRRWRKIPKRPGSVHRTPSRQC
Protocol: as §1, §2

[3] = target: T3, human muscarinic M2 receptor (Homo sapiens, UniProt P08172); assay: Alphascreen Surefire phospho-ERK1/2 functional assay, M2; details: for EC50: CHO cells stably expressing human M2, phospho-ERK1/2, read-out: pEC50 M2 (converted); for Emax: CHO, read-out: % Emax cf. ACh, M2
T3 construct: expressed in transfected cells
T3 sequence (P08172 1-466): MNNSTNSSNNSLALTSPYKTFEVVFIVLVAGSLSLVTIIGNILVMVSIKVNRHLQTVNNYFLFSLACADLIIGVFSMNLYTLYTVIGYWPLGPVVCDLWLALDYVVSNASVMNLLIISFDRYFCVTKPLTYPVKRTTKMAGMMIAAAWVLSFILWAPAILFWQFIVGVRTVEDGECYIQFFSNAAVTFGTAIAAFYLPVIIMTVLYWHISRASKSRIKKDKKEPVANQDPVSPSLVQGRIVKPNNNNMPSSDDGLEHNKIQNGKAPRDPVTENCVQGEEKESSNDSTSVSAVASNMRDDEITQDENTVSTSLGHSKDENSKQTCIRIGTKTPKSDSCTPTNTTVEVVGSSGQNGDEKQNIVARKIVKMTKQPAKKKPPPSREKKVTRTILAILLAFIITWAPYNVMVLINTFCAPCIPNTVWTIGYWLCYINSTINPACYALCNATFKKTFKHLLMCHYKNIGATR
Protocol: as §1, §2

[4] = target: T4, human muscarinic M4 receptor (Homo sapiens, UniProt P08173); assay: Alphascreen Surefire phospho-ERK1/2 functional assay, M4; details: for EC50: phospho-ERK1/2, read-out: pEC50 M4 (converted); for Emax: CHO
T4 construct: expressed in transfected cells
T4 sequence (P08173 1-479): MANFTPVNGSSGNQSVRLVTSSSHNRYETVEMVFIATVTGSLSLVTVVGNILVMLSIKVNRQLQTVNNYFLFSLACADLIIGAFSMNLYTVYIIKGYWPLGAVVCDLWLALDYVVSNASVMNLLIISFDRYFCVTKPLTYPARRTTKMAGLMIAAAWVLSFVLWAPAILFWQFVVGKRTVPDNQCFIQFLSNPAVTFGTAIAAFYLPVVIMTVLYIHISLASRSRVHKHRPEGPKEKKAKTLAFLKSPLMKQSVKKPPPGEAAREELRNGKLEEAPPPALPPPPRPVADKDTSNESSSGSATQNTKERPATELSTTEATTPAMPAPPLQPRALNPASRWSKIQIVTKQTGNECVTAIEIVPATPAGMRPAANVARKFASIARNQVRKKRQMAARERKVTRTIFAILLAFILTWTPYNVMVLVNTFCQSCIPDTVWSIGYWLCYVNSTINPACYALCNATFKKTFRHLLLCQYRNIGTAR
Protocol: as §1, §2

[5] = CHO cells stably expressing human M1
[6] = CHO cells stably expressing human M4

T1 sequence (P20309 whole entry): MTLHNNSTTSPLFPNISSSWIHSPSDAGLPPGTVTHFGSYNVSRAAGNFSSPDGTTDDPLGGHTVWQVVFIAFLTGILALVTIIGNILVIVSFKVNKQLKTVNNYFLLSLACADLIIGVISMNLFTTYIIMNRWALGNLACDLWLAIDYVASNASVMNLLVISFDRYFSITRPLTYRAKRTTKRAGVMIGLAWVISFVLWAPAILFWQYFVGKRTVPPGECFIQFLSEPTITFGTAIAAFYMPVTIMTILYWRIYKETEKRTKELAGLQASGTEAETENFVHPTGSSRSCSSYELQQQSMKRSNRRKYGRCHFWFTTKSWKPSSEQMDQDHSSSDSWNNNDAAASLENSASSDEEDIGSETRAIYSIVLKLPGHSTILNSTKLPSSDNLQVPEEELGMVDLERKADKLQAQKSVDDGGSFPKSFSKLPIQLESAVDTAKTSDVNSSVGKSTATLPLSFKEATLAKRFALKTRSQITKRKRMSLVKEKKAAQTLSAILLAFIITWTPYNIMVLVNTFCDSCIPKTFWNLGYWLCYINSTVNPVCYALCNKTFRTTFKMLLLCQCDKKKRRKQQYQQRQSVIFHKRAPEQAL

Row | EC50 [1] [nM] | Emax [1] [%] | EC50 [2, 5] [nM] | Emax ([2]; read-out: % Emax cf. ACh, M1) [%] | EC50 [3] [nM] | Emax [3] [%] | EC50 [4, 6] [nM] | Emax ([4]; read-out: % Emax cf. ACh, M4) [%] | SMILES | % Emax cf. ACh, M1 ([2]; CHO cells stably expressing human M1, relative to ACh) [%] | % Emax cf. ACh, M4 ([4]; CHO cells stably expressing human M4, relative to ACh, listed as 1 - Isomer 2) [%] | Emax ([2]; read-out: % Emax cf. ACh, M1, CHO cells stably expressing human M1, relative to ACh) [%] | Emax ([4]; read-out: % Emax cf. ACh, M4, CHO cells stably expressing human M4, relative to ACh) [%]
1 | > 20000 | 4 | 55 | 127 | > 20000 | 10 | 447 | 81 | CCOC(=O)N1CC2CC(N3CCC(C(=O)NC4(C)CCC4)CC3)CC1C2 (mixture of isomers) [Example 7 - mixture of diastereomers, ethyl 3-{4-[(1-methylcyclobutyl)carbamoyl]piperidin-1-yl}-6-azabicyclo[3.2.1]octane-6-carboxylate] |  |  |  | 
2 | > 20000 | 8 | 110 | 118 | > 20000 | 5 | 1700 | 29 | CCOC(=O)N1CC2CC(N3CCC(C(=O)NC4(C)CCC4)CC3)CC2C1 (mixture of isomers) [Example 8 - mixture of diastereomers, ethyl 5-{4-[(1-methylcyclobutyl)carbamoyl]piperidin-1-yl}hexahydrocyclopenta[c]pyrrole-2(1H)-carboxylate] |  |  |  | 
3 | > 20000 | 12 | 67.6 | 107 | > 20000 | 9 | 170 | 111 | [2H]C([2H])([2H])C1(NC(=O)C2CCN(C3CC4(CCN(C(=O)OCC)C4)C3)CC2)CCC1 (single isomer, unassigned) [Example 21 - Isomer 2, ethyl 2-(4-{[1-(1,1,1-trideuteromethyl)cyclobutyl]carbamoyl}piperidin-1-yl)-6-azaspiro[3.4]octane-6-carboxylate] |  |  |  | 

Further lines, the compound ahead of its results:

Row | SMILES | EC50 [1] [nM] | Emax [1] [%] | EC50 [2, 5] [nM] | Emax ([2]; read-out: % Emax cf. ACh, M1) [%] | EC50 [3] [nM] | Emax [3] [%] | EC50 [4, 6] [nM] | Emax ([4]; read-out: % Emax cf. ACh, M4) [%] | % Emax cf. ACh, M1 ([2]; CHO cells stably expressing human M1, relative to ACh) [%] | % Emax cf. ACh, M4 ([4]; CHO cells stably expressing human M4, relative to ACh, listed as 1 - Isomer 2) [%] | Emax ([2]; read-out: % Emax cf. ACh, M1, CHO cells stably expressing human M1, relative to ACh) [%] | Emax ([4]; read-out: % Emax cf. ACh, M4, CHO cells stably expressing human M4, relative to ACh) [%]
4 | [2H]C([2H])([2H])C([2H])([2H])OC(=O)N1CCC2(CC(N3CCC(C(=O)NC4(C)CCC4)CC3)C2)C1 (single isomer, unassigned) [Example 29 - Isomer 2, (1,1,2,2,2-pentadeutero)ethyl 2-{4-[(1-methylcyclobutyl)carbamoyl]piperidin-1-yl}-6-azaspiro[3.4]octane-6-carboxylate] | > 20000 | 13 | 55 | 107 | > 20000 | 18 | 186 | 91 |  |  |  | 
5 | CCOC(=O)N1C2CCC1CC(N1CCC(C(=O)NC3(C)CCC3)CC1)C2 (single isomer, unassigned) [Example 1 - Isomer 2, ethyl 3-{4-[(1-methylcyclobutyl)carbamoyl]piperidin-1-yl}-8-azabicyclo[3.2.1]octane-8-carboxylate] | > 20000 | 18 | 41.7 |  | > 20000 | 0 | 170 |  | 102 | 98 |  | 
6 | CCOC(=O)N1[C@@H]2CCC[C@H]1CC(N1CCC(C(=O)NC3(C)CCC3)CC1)C2 (mixture of isomers) [Example 6 - mixture of diastereomers, ethyl 3-{4-[(1-methylcyclobutyl)carbamoyl]piperidin-1-yl}-9-azabicyclo[3.3.1]nonane-9-carboxylate] | > 20000 | 5 | 43.7 |  | > 20000 | 13 | 468 |  |  |  | 151 | 54
7 | CCOC(=O)N1CCC2(CC(N3CCC(C(=O)NC4(C)CCC4)CC3)C2)C1 (mixture of isomers) [Example 9 - mixture of diastereomers, ethyl 2-{4-[(1-methylcyclobutyl)carbamoyl]piperidin-1-yl}-6-azaspiro[3.4]octane-6-carboxylate] | > 20000 | 5 | 51.3 | 142 | > 20000 | 6 | 380 | 66 |  |  |  | 
